A short description of experiment [1]: DPPH radical scavenging (antioxidant) assay. The following applies: compounds from red maple stems. As for the experimental part:
The DPPH radical scavenging activity of ascorbic acid (vitamin C) and the synthetic commercial antioxidant, butylated hydroxytoluene (BHT), are also assayed as positive controls.
The DPPH radical scavenging activity of ascorbic acid (vitamin C) and the synthetic commercial antioxidant, butylated hydroxytoluene (BHT), are also assayed as positive controls. […] Absorbance is read after 30 min at 515 nm, and the scavenging capacity (SC) is calculated as SC %=(A0−A1/A0)×100, where A0 is the absorbance of the reagent blank and A1 is the absorbance of test samples. All tests are performed in triplicate.

Another experiment relates to CCD-18Co cells. Kind of experiment: MTS antiproliferative assay, normal colon CCD-18Co. The experiment is classed as cell-based. The following applies: Homo sapiens. As for the experimental part: (§1) The extracts are solubilized in DMSO and normalized based on their phenolic content to evaluate their antiproliferative activities against the colon cell lines. […] Caco-2 cells are grown in EMEM medium supplemented with 10% v/v fetal bovine serum, 1% v/v nonessential amino acids, 1% v/v L-glutamine and 1% v/v antibiotic solution (Sigma). HT-29 and HCT-116 cells are grown in McCoy's 5a medium supplemented with 10% v/v fetal bovine serum, 1% v/v nonessential amino acids, 2% v/v HEPES and 1% v/v antibiotic solution. CCD-18Co cells are grown in EMEM medium supplemented with 10% v/v fetal bovine serum, 1% v/v nonessential amino acids, 1% v/v L-glutamine and 1% v/v antibiotic solution and are used from PDL between 26 to 35 for all experiments. […] The pH of the culture medium is determined using pH indicator paper (pHydrion™ Brilliant, pH 5.5-9.0, Micro Essential Laboratory, NY, USA) inside the incubator. Cells are counted using a hemacytometer and are plated at 3,000-5,000 cells per well, in a 96-well format for 24 or 48 h prior to sample treatment depending on the cell line. […] Control cells are also run in parallel and subjected to the same changes in medium with 0.5% DMSO.
(§2) At the end of 48 or 72 h of treatment with serially diluted test samples, 20 μl of the MTS reagent, in combination with the electron coupling agent, phenazine methosulfate, is added to the wells and cells are incubated at 37° C. in a humidified incubator for 3 h. Absorbance at 490 nm (OD490) is monitored with a spectrophotometer (SpectraMax M2, Molecular Devices Corp., operated by SoftmaxPro v.4.6 software, Sunnyvale, Calif., USA), to obtain the number of cells relative to control populations. 20 μl of etoposide 4 mg/ml (Sigma) is assayed as a negative control of proliferation. […] Data are presented as the mean±S.D. of three separated experiments on each cell line.

The next experiment relates to HCT-116 cells. Kind of experiment: MTS antiproliferative assay, HCT-116. The experiment is classed as cell-based. The following applies: Homo sapiens. As for the experimental part:
as §1, §2
For orientation: Tetrazolium dyes change colour on reduction, which living cells bring about.

The next experiment has as its system HT-29 cells. The experiment can be described thus: MTS antiproliferative assay, HT-29. The experiment is classed as cell-based. Conditions: Homo sapiens. As for the experimental part: as §1, §2
A further experiment concerns Caco-2 cells. The experiment can be described thus: MTS antiproliferative assay, Caco-2. The following applies: Homo sapiens. The experiment is classed as cell-based. As for the experimental part:
The extracts are solubilized in DMSO and normalized based on their phenolic content to evaluate their antiproliferative activities against the colon cell lines. […] CCD-18Co cells are grown in EMEM medium supplemented with 10% v/v fetal bovine serum, 1% v/v nonessential amino acids, 1% v/v L-glutamine and 1% v/v antibiotic solution and are used from PDL between 26 to 35 for all experiments. […] The pH of the culture medium is determined using pH indicator paper (pHydrion™ Brilliant, pH 5.5-9.0, Micro Essential Laboratory, NY, USA) inside the incubator. […] Control cells are also run in parallel and subjected to the same changes in medium with 0.5% DMSO. […] At the end of 48 or 72 h of treatment with serially diluted test samples, 20 μl of the MTS reagent, in combination with the electron coupling agent, phenazine methosulfate, is added to the wells and cells are incubated at 37° C. in a humidified incubator for 3 h. […] Data are presented as the mean±S.D. of three separated experiments on each cell line.

The target of the next experiment is α-glucosidase (Saccharomyces cerevisiae, UniProt P53341). The experiment can be described thus: α-Glucosidase inhibition, red maple stem compounds (Example 4). The experiment is classed as biochemical. The following applies: for α-glucosidase inhibitory activity (in words): by number of galloyl groups.
[2] abbreviates: ginnalins, 72 h treatment, normal colon cells, read-out: IC50 CCD-18Co 72 h.
Where [3] appears, read: HCT-116, read-out: IC50 HCT-116 48 h, ginnalins, 48 h treatment.
Setting [4] is: HCT-116, ginnalins, 72 h treatment, read-out: IC50 HCT-116 72 h.
Setting [5] is: HT-29, read-out: IC50 HT-29 48 h, ginnalins, 48 h treatment.
Where [6] appears, read: HT-29, ginnalins, 72 h treatment, read-out: IC50 HT-29 72 h.
Setting [7] is: Caco-2, read-out: IC50 Caco-2 48 h, ginnalins, 48 h treatment.
Where [8] appears, read: Caco-2, ginnalins, 72 h treatment, read-out: IC50 Caco-2 72 h.

Where two headings read alike, the source gives them in different places.

Chain of α-glucosidase (P53341 whole entry): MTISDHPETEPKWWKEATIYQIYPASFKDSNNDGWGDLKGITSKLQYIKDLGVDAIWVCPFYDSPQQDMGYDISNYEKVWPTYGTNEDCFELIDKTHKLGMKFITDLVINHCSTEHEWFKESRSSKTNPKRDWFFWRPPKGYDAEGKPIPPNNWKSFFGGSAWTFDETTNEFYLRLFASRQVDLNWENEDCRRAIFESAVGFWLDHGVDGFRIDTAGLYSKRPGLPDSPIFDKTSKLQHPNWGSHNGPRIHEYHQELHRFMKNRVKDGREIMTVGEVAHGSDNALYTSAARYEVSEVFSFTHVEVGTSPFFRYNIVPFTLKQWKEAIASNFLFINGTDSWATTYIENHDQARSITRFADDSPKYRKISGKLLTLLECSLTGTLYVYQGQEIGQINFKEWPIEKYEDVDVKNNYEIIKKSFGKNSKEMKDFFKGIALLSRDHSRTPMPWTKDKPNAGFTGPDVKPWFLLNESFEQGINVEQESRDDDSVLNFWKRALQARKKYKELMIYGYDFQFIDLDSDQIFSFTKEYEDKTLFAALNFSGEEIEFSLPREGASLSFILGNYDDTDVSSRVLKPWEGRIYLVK

`Cc1cc(C(C)(C)C)c(O)c(C(C)(C)C)c1` [BHT, butylated hydroxytoluene, reference compound] showed an IC50 in experiment [1] of 1634 ± 16.1 µM.
As to `COc1cc([C@@H]2c3cc4c(cc3[C@@H](O[C@@H]3O[C@@H]5CO[C@@H](C)O[C@H]5[C@H](O)[C@H]3O)[C@H]3COC(=O)[C@H]23)OCO4)cc(OC)c1O` [Etoposide, reference compound], the IC50 was 30 to 40 µM in the experiment on CCD-18Co cells (MTS assay control, read-out: IC50 CCD-18Co (control of proliferation)); 10 to 20 µM with HCT-116 cells (HCT-116, MTS assay control, read-out: IC50 HCT116 (control of proliferation)); 10 to 20 µM with HT-29 cells (HT-29, MTS assay control, read-out: IC50 HT29 (control of proliferation)); 10 to 20 µM with Caco-2 cells (Caco-2, MTS assay control, read-out: IC50 Caco-2 (control of proliferation)).
With `O=C(O[C@H]1[C@H](O)[C@@H](CO)OC[C@@H]1O)c1cc(O)c(O)c(O)c1` [RMS 4, 3-O-galloyl-1,5-anhydro-D-glucitol], the “α-glucosidase inhibitory activity (in words)” value on α-glucosidase is listed as “do not show any activity”. Moreover, the IC50 in experiment [1] was 48 ± 1.11 µM.
Taken in the same sequence, the figures for `O=C(O[C@H]1[C@H](O)[C@@H](O)CO[C@@H]1CO)c1cc(O)c(O)c(O)c1` [RMS 5, 4-O-galloyl-1,5-anhydro-D-glucitol] were “do not show any activity” and 45.6 ± 1.45 µM.
On to `O=C(O[C@H]1[C@H](O)[C@@H](OC(=O)c2cc(O)c(O)c(O)c2)CO[C@@H]1CO)c1cc(O)c(O)c(O)c1` [RMS 7, 2,4-di-O-galloyl-1,5-anhydro-D-glucitol], for which, on α-glucosidase, the “inhibitors of α-glucosidase enzyme, concentration dependence” value (shortened to “inhibitors of α-glucosidase enzyme”) is listed as “inhibitors of α-glucosidase enzyme in a concentration-dependent manner” and the “α-glucosidase inhibitory activity (in words)” value is “moderate α-glucosidase inhibitory activity”. This molecule had an IC50 in experiment [1] of 18.6 ± 0.77 µM.
Taken in the same sequence, the figures for `O=C(O[C@H]1[C@H](O)[C@@H](CO)OC[C@@H]1OC(=O)c1cc(O)c(O)c(O)c1)c1cc(O)c(O)c(O)c1` [RMS 9, 2,3-di-O-galloyl-1,5-anhydro-D-glucitol] were “inhibitors of α-glucosidase enzyme in a concentration-dependent manner”, “moderate α-glucosidase inhibitory activity” and 18.8 ± 0.77 µM.
With `O=C(OC[C@H]1OC[C@H](O)[C@@H](O)[C@@H]1O)c1cc(O)c(O)c(O)c1` [RMS 12, 6-O-galloyl-1,5-anhydro-D-glucitol], on α-glucosidase, the “α-glucosidase inhibitory activity (in words)” value is recorded as “do not show any activity”. The IC50 is 47.1 ± 5.3 mg/L with CCD-18Co cells (setting [2]); 25.1 ± 1.8 mg/L in the experiment with HCT-116 cells (setting [3]); 20 ± 2 mg/L in the experiment with HCT-116 cells (setting [4]); 36.2 ± 1.5 mg/L with HT-29 cells (setting [5]); 27.3 ± 0.6 mg/L in the experiment with HT-29 cells (setting [6]); 32.7 ± 0.48 µM in experiment [1]. The IC50 with Caco-2 cells (setting [7]) was determined as 31.1 ± 1.9 mg/L; in the experiment on Caco-2 cells (setting [8]) it was 22.6 ± 1.9 mg/L.
Consider `O=C(O)c1cc(O)c(O)c(O)c1` [RMS 14, gallic acid], for which the IC50 in experiment [1] amounted to 20.4 ± 0.34 µM.
As for `COC(=O)c1cc(OC)c(O)c(OC)c1` [RMS 15, Methyl 3,5-dimethoxy-4-hydroxybenzoate], in experiment [1], the IC50 worked out at 991 ± 80.6 µM.
Consider `COC(=O)c1cc(O)c(O)c(O)c1` [RMS 17, Methyl gallate], for which the “inhibitors of α-glucosidase enzyme” value on α-glucosidase was “inhibitors of α-glucosidase enzyme in a concentration-dependent manner”. In experiment [1], this molecule displayed an IC50 of 16.5 ± 0.26 µM.
As for `O=C(OC[C@H]1OC[C@H](O)[C@@H](OC(=O)c2cc(O)c(O)c(O)c2)[C@@H]1O)c1cc(O)c(O)c(O)c1` [RMS 18, 3,6-di-O-galloyl-1,5-anhydro-D-glucitol], at α-glucosidase, the “inhibitors of α-glucosidase enzyme” value is “inhibitors of α-glucosidase enzyme in a concentration-dependent manner” and the “α-glucosidase inhibitory activity (in words)” value is recorded as “moderate α-glucosidase inhibitory activity”. Moreover, in experiment [1], the IC50 was 18.5 ± 0.44 µM.
Taken in the same sequence, the figures for `O=C(OC[C@H]1OC[C@H](OC(=O)c2cc(O)c(O)c(O)c2)[C@@H](O)[C@@H]1OC(=O)c1cc(O)c(O)c(O)c1)c1cc(O)c(O)c(O)c1` [RMS 24, 2,4,6-tri-O-galloyl-1,5-anhydro-D-glucitol] were “inhibitors of α-glucosidase enzyme in a concentration-dependent manner”, “powerful α-glucosidase inhibitory activity” and 13.1 µM.
In the case of `O=C(OC[C@H]1OC[C@H](OC(=O)c2cc(O)c(O)c(O)c2)[C@@H](O)[C@@H]1O)c1cc(O)c(O)c(O)c1` [RMS 26, 2,6-di-O-galloyl-1,5-anhydro-D-glucitol], the “inhibitors of α-glucosidase enzyme” value against α-glucosidase was “inhibitors of α-glucosidase enzyme in a concentration-dependent manner”. Further, the “α-glucosidase inhibitory activity (in words)” value on α-glucosidase is on record as “moderate α-glucosidase inhibitory activity”. Moreover, the IC50 was 46.6 ± 3.6 mg/L with CCD-18Co cells (setting [2]); 21.5 ± 1.6 mg/L in the experiment on HCT-116 cells (setting [3]); 16.3 ± 2.1 mg/L with HCT-116 cells (setting [4]); 31 ± 2.6 mg/L in the experiment with HT-29 cells (setting [5]); 24.1 ± 1.3 mg/L with HT-29 cells (setting [6]); 17.7 ± 0.21 µM in experiment [1]. Also, the IC50 with Caco-2 cells (setting [7]) was determined as 28.8 ± 1.8 mg/L; in the experiment with Caco-2 cells (setting [8]), 21.7 ± 1 mg/L.
Consider `O=C(O[C@H]1CO[C@H](CO)[C@@H](O)[C@@H]1O)c1cc(O)c(O)c(O)c1` [RMS 27, 2-O-galloyl-1,5-anhydro-D-glucitol], for which, on α-glucosidase, the “α-glucosidase inhibitory activity (in words)” value was “do not show any activity”. Further, the IC50 is 27 ± 1.9 mg/L with HCT-116 cells (setting [3]); 22.3 ± 2.4 mg/L with HCT-116 cells (setting [4]); 33.8 ± 2 mg/L in the experiment with HT-29 cells (setting [5]); 30.1 ± 1.3 mg/L in the experiment with HT-29 cells (setting [6]); 30.5 ± 0.8 µM in experiment [1]; 35 ± 1.4 mg/L with Caco-2 cells (setting [7]). The IC50 in the experiment with Caco-2 cells (setting [8]) was 29.8 ± 1.2 mg/L.
In experiment [1], `COC(=O)c1cc(O)c(O)c(OC)c1` [RMS 28, 3,4-dihydroxy-5-methoxybenzoic acid methyl ester] registered an IC50 of 116 ± 4.98 µM.
The same measure, in the same setting: then `O=C1O[C@H]([C@@H](O)CO)C(O)=C1O` [Vitamin C, ascorbic acid, reference compound], with 71 ± 1.61 µM.

Values taken from patent publication US20130310332A1, “MAPLE TREE-DERIVED PRODUCTS AND USES THEREOF” (UNIVERSITY OF RHODE ISLAND, priority 2010, published 2013).
